Measured values from patent publication US20250230155A1 (Vanderbilt University, priority 2021, published 2025).

Molecular target: T1, human mAChR M4 (Homo sapiens, UniProt P08173)
T1 construct: expressed in transfected cells
T1 sequence (P08173 1-479): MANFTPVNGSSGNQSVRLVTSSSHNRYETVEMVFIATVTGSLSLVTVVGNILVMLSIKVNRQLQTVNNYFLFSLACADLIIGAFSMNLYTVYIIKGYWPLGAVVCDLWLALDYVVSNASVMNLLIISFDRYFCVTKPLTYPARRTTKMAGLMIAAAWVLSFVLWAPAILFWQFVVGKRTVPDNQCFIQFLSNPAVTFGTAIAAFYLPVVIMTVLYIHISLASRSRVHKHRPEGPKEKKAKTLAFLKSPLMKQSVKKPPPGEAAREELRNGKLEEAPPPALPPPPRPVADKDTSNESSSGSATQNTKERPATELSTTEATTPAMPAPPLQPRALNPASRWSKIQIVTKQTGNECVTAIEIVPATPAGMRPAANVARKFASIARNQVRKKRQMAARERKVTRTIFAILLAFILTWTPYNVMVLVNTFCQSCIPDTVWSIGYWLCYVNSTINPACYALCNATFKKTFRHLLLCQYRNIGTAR
Assay: mAChR M4 cell-based functional assay (calcium mobilization, CHO-K1 hM4-Gqi5 cells)
Conditions: for Emax at 30 µM: CHO-K1, % ACh maximum at 30 μM, human M4; for EC50: positive allosteric modulator activity, increase in the EC20 acetylcholine response, CHO-K1 hM4-Gqi5 cells, read-out: Human M4 EC50
Method in brief: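 CHO-K1 cells stably expressing human M4 with chimeric Gqi5, loaded with Fluo-4 AM; compounds given as 11-point 1:3 curves and calcium flux read on FDSS at 1 Hz. Acetylcholine EC20 added at 144 s, EC80 at 230 s; agonist, PAM (EC20 potentiation) and antagonist (EC80 inhibition) EC50/Emax from four-parameter fits.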

Row | Compound | Emax at 30 µM | EC50 | Emax (CHO-K1)
1 | Cc1cc(C#N)cnc1N1CCc2ncc(N3CCCn4nccc43)cc2C1 [Example 314, 6-(3-(6,7-dihydropyrazolo[1,5-a]pyrimidin-4(5H)-yl)-7,8-dihydro-1,6-naphthyridin-6(5H)-yl)-5-methylnicotinonitrile] | 94% | 26 nM | –
2 | Cc1nc(C)c(C)c(N2CCc3ncc(Oc4ccccc4F)cc3C2)n1 [compound 260, 3-(2-fluorophenoxy)-6-(2,5,6-trimethylpyrimidin-4-yl)-5,6,7,8-tetrahydro-1,6-naphthyridine] | 87% | 154 nM | –
3 | Cc1nc(Cl)c(C)c(N2CCc3ncc(Nc4cc(F)ccc4F)cc3C2)n1 [compound 88, 6-(6-chloro-2,5-dimethyl-pyrimidin-4-yl)-N-(2,5-difluorophenyl)-7,8-dihydro-5H-1,6-naphthyridin-3-amine] | 86% | 731 nM | –
4 | Cc1cc(C#N)nnc1N1CCc2ncc(N3CC(C)Cn4nccc43)cc2C1 (stereo not shown) [Example 381, 5-methyl-6-(3-(6-methyl-6,7-dihydropyrazolo[1,5-a]pyrimidin-4(5H)-yl)-7,8-dihydro-1,6-naphthyridin-6(5H)-yl)pyridazine-3-carbonitrile] | 98% | 384 nM | –
5 | Cc1cc(C(=O)NCc2cncs2)cnc1N1CCc2ncc(-c3ccc(N(C)C)nc3)cc2C1 [Example 485, 6-(3-(6-(dimethylamino)pyridin-3-yl)-7,8-dihydro-1,6-naphthyridin-6(5H)-yl)-5-methyl-N-(thiazol-5-ylmethyl)nicotinamide] | 79% | 247 nM | –
6 | Cc1cc(C(=O)NC2(c3cccnc3)CC2)nnc1N1CCc2ncc(N3CCCn4nccc43)cc2C1 [Example 553, 6-(3-(6,7-dihydropyrazolo[1,5-a]pyrimidin-4(5H)-yl)-7,8-dihydro-1,6-naphthyridin-6(5H)-yl)-5-methyl-N-(1-(pyridin-3-yl)cyclopropyl)pyridazine-3-carboxamide] | 80% | 21 nM | –
7 | Cc1nc(Cl)c(C)c(N2CCc3ncc(-c4c(C)noc4C)cc3C2)n1 [compound 197, 4-[6-(6-chloro-2,5-dimethyl-pyrimidin-4-yl)-7,8-dihydro-5H-1,6-naphthyridin-3-yl]-3,5-dimethyl-isoxazole] | 92% | 63 nM | –
8 | [2H]C([2H])([2H])c1cnc2c(c1)CN(c1nnc(C(=O)NC3(c4cccnc4)CC3)cc1C)CC2 [Example 580, 5-methyl-6-(3-(methyl-d3)-7,8-dihydro-1,6-naphthyridin-6(5H)-yl)-N-(1-(pyridin-3-yl)cyclopropyl)pyridazine-3-carboxamide] | 75% | 108 nM | –
9 | Cc1cc(C#N)cnc1N1CCc2ncc(Cc3ccccc3F)cc2C1 [Example 365, 6-(3-(2-fluorobenzyl)-7,8-dihydro-1,6-naphthyridin-6(5H)-yl)-5-methylnicotinonitrile] | 89% | 358 nM | –
10 | Cc1cc2n(n1)CCCN2c1cnc2c(c1)CN(c1ncc(C#N)cc1C)CC2 [Example 385, 5-methyl-6-(3-(2-methyl-6,7-dihydropyrazolo[1,5-a]pyrimidin-4(5H)-yl)-7,8-dihydro-1,6-naphthyridin-6(5H)-yl)nicotinonitrile] | 103% | 40 nM | –
11 | Cc1cc(C(=O)NCc2cnc3c(c2)CCC3)cnc1N1CCc2ncccc2C1 [compound 155, N-(6,7-dihydro-5H-cyclopenta[b]pyridin-3-ylmethyl)-6-(7,8-dihydro-5H-1,6-naphthyridin-6-yl)-5-methyl-pyridine-3-carboxamide] | 63% | 3910 nM | –
12 | Cc1nc(Cl)c(C)c(N2Cc3cc(N)cnc3C(C)C2)n1 (stereo not shown) [compound 255, 6-(6-chloro-2,5-dimethylpyrimidin-4-yl)-8-methyl-5,6,7,8-tetrahydro-1,6-naphthyridin-3-amine] | – | 2100 nM | 88%
13 | Cc1cc(C#N)cnc1N1CCc2ncc(-c3cnn(CC4CC4)c3)cc2C1 [compound 102, 6-[3-[1-(cyclopropylmethyl)pyrazol-4-yl]-7,8-dihydro-5H-1,6-naphthyridin-6-yl]-5-methyl-pyridine-3-carbonitrile] | 86% | 362 nM | –
14 | Cc1ncc(-c2cnc3c(c2)CN(c2nnc(C#N)c(C)c2C)CC3)s1 [compound 293, 4,5-dimethyl-6-(3-(2-methylthiazol-5-yl)-7,8-dihydro-1,6-naphthyridin-6(5H)-yl)pyridazine-3-carbonitrile] | 85% | 354 nM | –
